Earlier results, collected in patent US20050267009A1, “Method of Treatment of Acute and Persistent Pain” (priority 2004, published 2005).
Read-outs that look alike come from different tables or passages of the source.

Columns and labels:
[1] = system: glia and proinflammatory cytokines; details: intrathecal
nerve root injury = details: topical application of disk tissue (nucleus pulposus)
trigeminal nerve fibers = details: dura mater
NOS-2 = details: macrophages and astroglial cells, decreased NOS-2 activity and protein
interleukin-10 = details: prolonged administration
spinal VR1 receptors = target: T1, spinal VR1 receptors (Rattus norvegicus, UniProt O35433); details: spinal 0.5-30 microM; greater extent in sham operated than SNL rats
T1 construct: VR1 receptors, present on Adelta- and C-fibres and post-synaptic sites within the spinal cord dorsal horn; endogenous in cells; host or cells: rat spinal cord, in vivo electrophysiology

COX = details: 5 and 7 days after injection
prostaglandin E2 (PGE2) = details: 10 days after CCI, treatment started 12 hours after surgery
[2] = system: spinal neuronal responses
nociceptors = details: rat skin in vitro; for sensitization of the heat-evoked CGRP release: applied alone; for EC(50) of heat sensitization of CGRP release: heat-evoked CGRP release
[3] = human, in vivo
[4] = in vivo
[5] = system: spinal cord nociceptive transmission; details: for wind-up activity: normal rats
[6] = systemic HU210 60 microg/kg, sham-operated rats

T1 sequence (O35433 whole entry): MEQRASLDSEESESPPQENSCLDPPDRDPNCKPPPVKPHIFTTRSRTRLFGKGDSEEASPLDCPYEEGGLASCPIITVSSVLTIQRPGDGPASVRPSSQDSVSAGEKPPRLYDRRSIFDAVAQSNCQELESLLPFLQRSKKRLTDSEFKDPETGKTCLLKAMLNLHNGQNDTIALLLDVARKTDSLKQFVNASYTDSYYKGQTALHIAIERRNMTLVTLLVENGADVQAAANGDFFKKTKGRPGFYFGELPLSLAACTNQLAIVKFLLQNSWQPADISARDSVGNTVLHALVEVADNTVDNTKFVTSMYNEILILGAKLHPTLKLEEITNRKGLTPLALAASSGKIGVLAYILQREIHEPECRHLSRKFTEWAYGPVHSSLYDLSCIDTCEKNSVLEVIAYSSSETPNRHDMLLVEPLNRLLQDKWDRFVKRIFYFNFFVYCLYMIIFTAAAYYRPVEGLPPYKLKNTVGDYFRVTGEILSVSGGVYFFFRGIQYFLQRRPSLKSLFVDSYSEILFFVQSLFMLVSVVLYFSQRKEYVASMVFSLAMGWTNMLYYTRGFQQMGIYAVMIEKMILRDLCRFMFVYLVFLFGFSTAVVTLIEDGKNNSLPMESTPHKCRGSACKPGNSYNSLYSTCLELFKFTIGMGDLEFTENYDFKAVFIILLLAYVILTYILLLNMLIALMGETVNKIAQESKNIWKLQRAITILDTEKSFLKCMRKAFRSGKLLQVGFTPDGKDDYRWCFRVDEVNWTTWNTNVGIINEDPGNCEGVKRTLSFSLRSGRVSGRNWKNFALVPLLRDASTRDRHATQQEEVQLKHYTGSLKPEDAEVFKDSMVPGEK

In the case of `N=C(N)NC(=O)c1nc(Cl)c(N)nc1N` [Amiloride], the “blockade of ASICs” value (ASICs) is listed as “not potent and not selective”.

In the case of `C/C(=N\N=C(N)N)c1cc(NC(=O)CCCCCCCCC(=O)Nc2cc(/C(C)=N/N=C(N)N)cc(/C(C)=N/N=C(N)N)c2)cc(/C(C)=N/N=C(N)N)c1.Cl.Cl.Cl.Cl` [CNI-1493], the “ipsilateral and mirror-image SIN-induced allodynias” value [1] is listed as “prevented and reversed”.

In the case of `CCCCCCC(C)(C)c1cc(O)c2c(c1)OC(C)(C)[C@@H]1CC=C(CO)C[C@@H]21` [HU210], the “C-fibre mediated post-discharge response of spinal neurones” value (spinal neurones; spinal administration 0.5-500 ng/50 microl, sham operated rats) is given as “significantly reduced”, the “Adelta-fibre evoked responses of spinal neurones” value (spinal neurones; spinal administration, both sham operated and nerve injured rats) is given as “significantly reduced” and the Adelta-fibre evoked responses (spinal neurones; [6]) is given as 48+/−5 % of control. For the same molecule, the “overall C-fibre evoked response” value (spinal neurones; [6]) was 54+/−8 % of control, the post-discharge response (spinal neurones; [6]) was 28+/−12 % of control and the “C- or Abeta-fibre evoked responses of spinal neurones” value (spinal neurones; systemic administration, nerve injured rats) was “did not significantly reduce”.

For `[Cl-].[Cl-].[Mn+2].c1cc2nc(c1)CN[C@@H]1CCCC[C@H]1NCCN[C@@H]1CCCC[C@H]1NC2` [M40403], the “anti-hyperalgesic effects with naloxone” value (superoxide) is listed as “not reversed”.

In the case of `CC(=O)CCCCn1c(=O)c2c(ncn2C)n(C)c1=O` [Pentoxifylline], the “nerve root injury and swelling (dorsal root ganglion compartment syndrome)” value (nerve root injury) is listed as “prevented”.

In the case of `CNS(=O)(=O)Cc1ccc2[nH]cc(CCN(C)C)c2c1` [Sumatriptan], the “nerve fiber induced plasma extravasation” value (trigeminal nerve fibers) is listed as “blocks” and the “nerve fiber mediated vasodilatation and dural arterial flow” value (trigeminal nerve fibers) is listed as “only minor effects”.

In the case of `N=C(N)NCCCCN` [agmatine], the “production of nitric oxide” value (NOS-2) is given as “inhibits”.

In the case of `CN(C)CCC=C1c2ccccc2CCc2ccccc21` [amitriptyline], the “secretion of the anti-inflammatory cytokine interleukin-10” value (interleukin-10) is given as “significant increase”.

For `Oc1cc2c(cc1O)CN(C(=S)NCCc1ccc(Cl)cc1)CCC2` [capsazepine], the “noxious evoked responses of spinal neurones” value (spinal VR1 receptors) is listed as “reduced”.

For `CNCCCN1c2ccccc2CCc2ccccc21` [desipramine], the “secretion of the anti-inflammatory cytokine interleukin-10” value (interleukin-10) is listed as “significant increase”.

In the case of `O=C(O)CC(O)(C(=O)O)C(F)C(=O)O` (stereo not shown) [fluorocitrate], the “ipsilateral and mirror-image SIN-induced allodynias” value [1] is listed as “reversed”.

For `CC(C)Cc1ccc(C(C)C(=O)O)cc1` (stereo not shown) [ibuprofen], the “mechanical allodynia induced by intraneural TNF” value (COX) is listed as “reduced” and the “PGE2 levels in injured nerves and DRG” value (prostaglandin E2 (PGE2)) is listed as “reversed”.

In the case of `CCCn1cnc2c1c(=O)n(CCCCC(C)=O)c(=O)n2C` [propentofylline], the “glial activation and enhanced spinal proinflammatory cytokines” value (glial activation; following peripheral nerve injury) is listed as “inhibit” and the “analgesic activity of morphine” value (glial activation; propentofylline treatment, neuropathic pain) is listed as “restoration”.

For `O=C1CCC(N2C(=O)c3ccccc3C2=O)C(=O)N1` (stereo not shown) [thalidomide], the “epineurial IL-10 immunoreactive macrophages and recovery of endoneurial IL-10-IR” value (TNF-alpha; CCI) is given as “enhanced”, the “thermal hyperalgesia and mechanical allodynia” value (TNF-alpha; CCI) is given as “reduces” and the “endoneurial IL-1 beta-immunoreactivity and IL-6-IR” value (TNF-alpha; CCI, lesioned rat sciatic nerve) is given as “not altered”. For the same molecule, the “increase of endoneurial TNF-alpha” value (TNF-alpha; first week after CCI, immunohistochemistry and ELISA) was “reduced”, the “decrease in CGRP-IR and SP-IR in the dorsal horn” value (TNF-alpha; operated animals) was “not influenced” and the “increase in met-enkephalin in the dorsal horn” value (TNF-alpha; operated animals) was “further enhanced”.

In the case of IL-6: cytokine interleukin-6, the “electrically evoked C-fibre, initial C-fibre, post discharge and wind-up” value ([2]; following neuropathy, spinal) is given as “dose-related inhibition”, the “electrically evoked neuronal responses” value ([2]; naive rats, spinal 100-500 ng) is given as “no significant effect” and the mechanical neuronal responses ([2]; neuropathic rats, spinal) is given as “markedly inhibited”. The “sensitization of the heat-evoked CGRP release” value (nociceptors) was “did not induce heat sensitization”.

For IL-8: cytokine interleukin-8, the “sensitization of the heat-evoked CGRP release” value (nociceptors) is given as “not”.

For TNF-alpha, the “maximum effect on heat-evoked CGRP release” value (nociceptors) is given as 350% and the “EC(50) of heat sensitization of CGRP release” value (nociceptors) is given as 3.1 ng/mL.

B1: nerve growth factor: prototypic member of the neurotrophin family (protein, UniProt P25427 122-241, looked up)
Beta-nerve growth factor: SSTHPVFHMGEFSVCDSVSVWVGDKTTATDIKGKEVTVLGEVNINNSVFKQYFFETKCRAPNPVESGCRGIDSKHWNSYCTTTHTFVKALTTDDKQAAWRFIRIDTACVCVLSRKAARRG
For B1, the adverse event [3] is listed as “induction of pain has been the major adverse event” and the hyperalgesia [4] is listed as “rapid onset of hyperalgesia”.

B2: IL-10: natural anti-inflammatory cytokine (protein, UniProt P29456 19-178, looked up)
Interleukin-10: SKGHSIRGDNNCTHFPVSQTHMLRELRAAFSQVKTFFQKKDQLDNILLTDSLLQDFKGYLGCQALSEMIKFYLVEVMPQAENHGPEIKEHLNSLGEKLKTLWIQLRRCHRFLPCENKSKAVEQVKNDFNKLQDKGVYKAMNEFDIFINCIEAYVTLKMKN
In the case of B2, the “inflammatory mediator TNF-alpha after SCI” value (spinal cord injury; rats with SCI) is given as “decrease” and the “less spinal cord tissue loss than in untreated rats” value (spinal cord injury; single injection within half an hour of SCI) is given as 49%.

B3: IL-1 beta: proinflammatory cytokine interleukin-1 beta (protein, UniProt Q63264 117-268, looked up)
Interleukin-1 beta: VPIRQLHCRLRDEQQKCLVLSDPCELKALHLNGQNISQQVVFSMSFVQGETSNDKIPVALGLKGLNLYLSCVMKDGTPTLQLESVDPKQYPKKKMEKRFVFNKIEVKTKVEFESAQFPNWYISTSQAEHRPVFLGNSNGRDIVDFTMEPVSS
For B3, the “maximum effect on heat-evoked CGRP release” value (nociceptors) is listed as ~600%, the “EC(50) of heat sensitization of CGRP release” value (nociceptors) is listed as 2.7 ng/mL and the wind-up scores ([5]; monoarthritic rats, any dose) is listed as “did not significantly change”. The wind-up activity ([5]; higher doses (8.0 ng)) was “marginal insignificant effect” and the wind-up activity ([5]; low i.t. doses 0.03-2.0 ng) was “dose-dependently enhanced”.
